This note sets out measurements from US20100297123A1, “COMBINATION THERAPY TO INHIBIT T CELL EFFECTOR FUNCTION” (priority 2009, published 2010).

In one test the test system is effector CD4 T cells. As to the kind of experiment: CFSE proliferation assay of mouse effector CD4 T cells. In kind it is cell-based. Conditions: effector CD4 T cells stimulated with anti-CD3/28 and drug(s), FIG. 12B. The protocol:
Proliferation and cell division assays. Cells cultured in 96-well U-bottom plate wells were pulsed with 1 μCi of methyl-[^3H]thymidine (Amersham Biosciences) for 6 h during the last 72 h of stimulation and harvested onto filters (Wallac). Filters were wetted with Betaplate Scintillation fluid (PerkinElmer) and counts per minute read on a 1205 Betaplate Liquid Scintillation Counter (Wallac). For CFSE experiments, cells were labeled with 1 μM CFDA-SE (Sigma-Aldrich) in serum free RPMI 1640 medium for 10 min and washed twice before culturing. CFSE-labeled cells were assayed after 72 h of culture.
GRAIL is expressed during quiescence, lost upon activation. Naïve CD4 T cells were isolated from mouse and stimulated with anti-CD3 and anti-CD28 antibodies in vitro for the indicated number of hours (FIG. 10). Protein was collected and run by Western blot probing for GRAIL and β-actin. Effector CD4 T cells were made by first isolating from naïve mice, then stimulating with anti-CD3/28 for 3 days, split off and rested for 2 more days, then washed and put in fresh media for 2 additional days. Live CD4 T cells were then collected, shown to be at rest, and then activated in the same manner as described above. Protein samples were isolated and probed with anti-GRAII antibody as described in Example 1.
Shown in FIG. 12A, naïve CD4 T cells were labeled with CFSE, a dye that dilutes out with successive cell divisions. The naïve CD4 T cells were stimulated with anti-CD3/28 and the indicated drug(s) and CFSE profiles assessed after 3 days. […] A similar experiment was performed with effector CD4 T cells, prepared as described above.

The next test deals with mouse naive CD4 T cells. Description: CFSE cell division assay of mouse naive CD4 T cells. The format is cell-based. Conditions: anti-CD3/28 stimulation, CFSE profiles after 3 days.
A further test relates to GRAIL. As to the kind of experiment: GRAIL western blot of effector CD4 T cells. Conditions: effector CD4 T cells stimulated with anti-CD3/28, western blot, FIG. 12C. The format is cell-based, mouse. As to the method: Immunoblots. Whole-cell lysates were made using lysis buffer consisting of 0.5% Nonidet P-40, 100 mM sodium chloride, 0.5 mM EDTA, 20 mM Tris (pH 7.6-8.0), with protease inhibitor mixture (Pierce) and phosphatase inhibitor mixture (Pierce). Protein samples were loaded on 4-15% Tris-HCl gels (Bio-Rad) and separated by SDS-PAGE. Protein was transferred from gel to Immobolin-P polyvinylidene difluoride membrane (Millipore) using Trans-Blot SD Semidry Transfer Apparatus (Bio-Rad) following the manufacturer's instructions. StartingBlock (Tris-buffered saline with 0.05% Tween 20) (Pierce) was used to block membranes and was also used during primary and secondary Ab staining. Secondary Abs were all HRP conjugated (Zymed Laboratories). ECL Plus Western Blotting Reagents (GE Healthcare) were used for chemiluminescent detection of protein. Chemiluminescence signal was exposed onto Amersham Hyperfilm ECL (GE Healthcare). Membranes were stripped using Restore Western Blot Stripping Buffer (Pierce). Densitometry was performed using ImageJ software (National Institutes of Health). […]

Text for mouse naive CD4 T cells: Isolation and stimulation of mouse CD4 T cells. Spleen and lymph nodes were harvested from naive mice and homogenized through a strainer. RBC were lysed from the suspension using red blood cell lysing buffer (Sigma-Aldrich). Lymphocytes were isolated by density centrifugation using Lympholyte-M (Cedarlane Laboratories). CD4+ T cells were sorted via negative selection using an AutoMACS sorter (Miltenyi Biotec). BALB/c CD4+ T cells (5×103) were stimulated in 96-well U-bottom plates with equal numbers of polystyrene latex beads (Interfacial Dynamics) coated with 1.0 μg/ml anti-CD3 (145-2C11; eBioscience) and 0.5 μg/ml anti-CD28 (37.51; eBioscience). […] Anti-IL-2 Ab (JES6-1A12; eBioscience) was used at a concentration of 10 μg/ml. Cells were cultured in RPMI 1640 medium (Life Technologies) supplemented with 10% heat-inactivated FCS (Mediatech), 100 nM sodium pyruvate (Life Technologies), 2 mM L-glutamine (Life Technologies), 100 nM nonessential amino acids (Life Technologies), 100 U/ml penicillin/streptomycin (Life Technologies), and 5 nM 2-ME (Sigma-Aldrich). […]

For the molecule `O=C(NOCC(O)CO)c1ccc(F)c(F)c1Nc1ccc(I)cc1F` (centres unmarked) [PD0325901, N-(2,3-dihydroxypropoxy)-3,4-difluoro-2-(2-fluoro-4-iodophenylamino)benzamide], the “proliferation of effector CD4 T cells (CFSE)” value (from here on “proliferation … (CFSE)”) in the test on effector CD4 T cells is on record as “does not work alone”.

`CC(=O)O[C@@H]1[C@@H](OC(C)=O)[C@@H](O)[C@H](Oc2c(-c3ccc(O)cc3)oc3cc(O)cc(O)c3c2=O)O[C@H]1C` [SL0101]: in the test on effector CD4 T cells, the “proliferation … (CFSE)” value is given as “does not work alone”.

On to `N#CC(=C(/N)Sc1ccccc1N)/C(C#N)=C(\N)Sc1ccccc1N` [U0126], for which, in the test with mouse naive CD4 T cells, the “cell division / proliferation by CFSE dilution” value is given as “inhibits proliferation”. Further, in the test with effector CD4 T cells, the “proliferation … (CFSE)” value is “does not inhibit proliferation”. Further, the “GRAIL retention in effector CD4 T cells” value in the test with GRAIL was “does not lead to GRAIL retention”.
